{
  "source": "patent US7585851B2",
  "about": "“3′-prodrugs of 2′-deoxy-β-L-nucleosides” (priority 2000, dated 2009)",
  "key": {"[1]": {"details": "rat, in vivo"}, "[2]": {"tested_on": "MDCK, canine kidney epithelial cells"}, "[3]": {"tested_on": "HSV-1", "assay": "Antiviral panel: HSV-1 (HFF)", "type": "cell-based"}, "[4]": {"tested_on": "Influenza B", "assay": "Antiviral panel: Influenza B (MDCK)", "type": "cell-based"}, "[5]": {"tested_on": "Rhinovirus type 5", "assay": "Antiviral panel: Rhinovirus type 5 (KB)", "type": "cell-based"}, "[6]": {"assay": "Oral bioavailability of L-dC via dival-L-dC in cynomologus monkey (HPLC study)", "details": "cynomolgus monkey, in vivo, po", "text": "The drug was quantitated in plasma and in urine using HPLC analysis."}, "[7]": {"tested_on": "KB, human nasopharyngeal carcinoma"}, "[8]": {"tested_on": "WHV", "assay": "Woodchuck model of chronic hepatitis B infection, 12 weeks oral", "details": "1 mg/kg/day orally, woodchucks", "experimental": "WHV DNA and body weight were measured on Days 0, 1, 3, 7, 14, 21, 28, 42, 56, and 84 as well as on post-treatment Days 7, 14, 21, 28, 42, 56, 70, and 84. WHV DNA levels were determined by quantitative PCR. Appropriate samples for hematology, serum chemistries, WHV serology, and liver biopsy were collected pretreatment and on Day 84."}, "[9]": {"assay": "Bioavailability of the prodrugs of L-dC in monkeys, with and without L-dT", "details": "oral"}, "[10]": {"type": "in vivo, rhesus monkey", "experimental": "The pharmacokinetics of L-dC following oral administration in the rhesus monkey was determined. […] Blood samples for pharmacokinetic analysis were collected pre-dose and at 0.25, 0.5, 1, 2, 3, 6, 8 and 24 hours after dosing. Urine samples for pharmacokinetic analyses were collected via pan catch pre-dose and over the following intervals post-dose: 0-2, 2-4, 4-8 and 8-12 hours, and then at 12-hour intervals thereafter through 336 hours post-dose. The drug was detected and concentration determined using a reverse-phase HPLC technique."}, "[11]": {"tested_on": "bone marrow cells", "assay": "Mouse micronucleus assay", "type": "in vivo", "details": "single oral dose up to 2000 mg/kg, male and female mice", "experimental": "L-dC was tested for its potential to induce micronucleated polychromatic erythrocytes (MPCE) in the bone marrow cells of male and female mice. L-dC at concentrations of 500, 1000, and 2000 mg/kg and positive and negative controls were tested. Study […] as a single dose. Two harvests approximately 24 and 48 hours after L-dC or negative control administration were performed, and a single harvest approximately 24 hours after positive control administration was performed. Five male and five female mice per dose group per harvest time were used. The percentage of polychromatic erythrocytes (PCE) and MPCE frequency were determined for each timepoint."}, "[12]": {"details": "L-dC 10 mg/kg oral, rhesus monkey"}},
  "note": "Entries after “also recorded” stand apart in the source; their conditions may differ. Read-outs that look alike come from different tables or passages of the source.",
  "data": [
    {"smiles": "Nc1ccn([C@@H]2C[C@@H](O)[C@H](CO)O2)c(=O)n1", "note": "[L-dC, 2′-deoxy-β-L-cytidine]", "values": [
      {"measurement": "Tlast", "setting": "[1]", "value": 24, "unit": "h"},
      {"measurement": "estimated terminal phase half-lives", "setting": "[1]; 1000 mg/kg", "value": "9 to 17", "unit": "h"},
      {"measurement": "estimated terminal phase half-lives", "setting": "[1]; 2000 mg/kg", "value": "6 to 8", "unit": "h"},
      {"measurement": "AUClast", "setting": "[1]; po, 2000 mg/kg/day", "value": 461, "unit": "µg·h/mL"},
      {"measurement": "CC50", "setting": "[2]", "value": "> 100", "unit": "µM"},
      {"measurement": "EC50", "setting": "[3]", "value": ">100", "unit": "µg/mL"},
      {"measurement": "EC50", "setting": "[4]", "value": "> 100", "unit": "µM"},
      {"measurement": "EC50", "setting": "[5]", "value": "> 100", "unit": "µM"},
      {"measurement": "share of drug excreted / recovered dose in urine, by analyte", "setting": "[6]", "value": "~89", "unit": "%"},
      {"measurement": "CC50", "setting": "[7]", "value": "> 100", "unit": "µM"},
      {"measurement": "end-of-treatment liver biopsy histomorphology", "setting": "[8]", "value": "no histomorphological evidence of fatty changes; also recorded: no evidence of fatty change"},
      {"measurement": "% BA w/ L-dT", "setting": "[9]; coadministered with 10 mg/kg L-dT", "value": "11.9 ± 1.7", "unit": "%"},
      {"measurement": "% BA (bioavailability of L-dC)", "setting": "[9]; estimated relative to AUC of L-dC (oral dose)", "value": "16.4 ± 5.0", "unit": "%"},
      {"measurement": "Tmax", "setting": "[10]; [12]", "value": 0.83, "unit": "h"},
      {"measurement": "renal clearance", "setting": "[10]; [12]", "value": 4.55, "unit": "mL/min/kg"},
      {"measurement": "t1/2", "setting": "[10]; [12]", "value": 3.34, "unit": "h"},
      {"measurement": "oral bioavailability", "setting": "[10]; L-dC oral, rhesus monkey", "value": "~16", "unit": "%"},
      {"measurement": "administered oral dose recovered in urine", "setting": "[10]; after 48 hours", "value": 15, "unit": "%"},
      {"measurement": "share of drug excreted / recovered dose in urine, by analyte", "setting": "[10]; oral L-dC, analyte = label", "value": "~77", "unit": "%"},
      {"measurement": "administered oral dose recovered in urine", "setting": "[10]; within 8 hours", "value": "Approximately 8.5%"},
      {"measurement": "micronucleus assay result", "setting": "[11]", "value": "negative; also recorded: not clastogenic"}
    ]}
  ]
}
